# Test results published in article PMC3136361 (Journal of medicinal chemistry, 2011).
# Where “and” joins values, the source holds several entries; their conditions need not be identical. Equal entries are not always repeated.
# Assays:
# [1] = Intrinsic clearance in mouse hepatocytes; format: in vitro ADME
# [2] = system: SREBP; assay: SREBP-responsive; conditions: luciferase reporter assay, CHO-K1 cells
# [3] = Parallel artificial membrane permeability assay; conditions: for passive permeability through artificial membrane (in words): PAMPA
# [4] = system: SREBP-responsive genes in DU145 cells; assay: Real-time RT-PCR of SREBP-responsive genes in DU145 cells; format: cell-based, human
# [5] = system: ob/ob mice; conditions: male ob/ob mice, oral in chow, 8 wk
smiles,measurement,setting,value
"CCCc1cc(-c2nc(-c3ccc(C)cc3)cs2)ccn1 [Compound 1, fatostatin]",metabolic stability (in words),[1],low metabolic stability
CCCc1cc(-c2nc(-c3ccccc3)cs2)ccn1 [Compound 5a],decrease in potency relative to fatostatin,[2],fourfold
Cc1ccc(-c2csc(-c3ccccc3)n2)cc1 [Compound 12],decrease in potency relative to fatostatin,[2],3.3 fold
CCCc1cc(-c2ccc(-c3ccc(C)cc3)cc2)ccn1 [Compound 15],activity in reporter assay (in words),[2],large loss of activity
"CCCc1cc(-c2nc(-c3ccc(NC(C)C)cc3)cs2)ccn1 [Compound 20, N-Isopropyl-4-(2-(2-propylpyridin-4-yl)thiazol-4-yl)aniline]",metabolic stability (in words),[1],low metabolic stability
same,passive permeability through artificial membrane (in words),[3],moderate
"CCCc1cc(-c2nc(-c3ccc(NS(C)(=O)=O)cc3)cs2)ccn1 [Compound 24, N-(4-(2-(2-Propylpyridin-4-yl)thiazol-4-yl)phenyl)methanesulfonamide]",effect on transcription of three control genes unrelated to SREBP,"[4]; RPL13A, B2M, GAPDH",no significant effect
same,downregulation of transcription of nine SREBP-responsive genes,"[4]; real-time RT-PCR, all nine genes",at least 25%
same,metabolic stability (in words),[1],moderately stable
same,less weight than control mice,[5],8–9%
same,passive permeability through artificial membrane (in words),[3],high
"CC(=O)CC(c1ccccc1)c1c(O)c2ccccc2oc1=O (stereo not drawn) [Warfarin, reference compound]",Reference PAMPA Papp,"[3]; Warfarin 10 μM, control for membrane integrity, run alongside each compound",5.34 10^−6 cm/sec and 5.58 10^−6 cm/sec
